Assay results taken from patent US9486506B2 (Novo Nordisk A/S, priority 2011, dated 2016).
Numbered stars: 1 amine (or outer) side, 2 acyl side, 3 side chain; on linkers, the order of the positions; unused ones are H or OH. Side chains are listed from the residue outwards. Peptide text beside a SMILES is read from it. * marks the point of attachment. C18 diacid = O=C(O)CCCCCCCCCCCCCCCCC(=O)*; γGlu = O=C(O)[C@H](CCC(=O)[*:2])N[*:1]; AEEA = NCCOCCOCC(=O)O

Legend:
[1] = Assay (X) Chemical stability assessment by RP-UPLC; type: physicochemical; conditions: pH 8.15, 14 days at 37° C. vs 5° C., 333 μM
[2] = Assay (XI) Pharmacokinetic study in minipigs; type: in vivo, Göttingen minipigs; conditions: both sexes, Göttingen, minipig, plasma, iv, i.v. administration, terminal half-life, read-out: iv PK minipig [T½] (converted)
Method: Buffer: • 50 mM Dinatriumphosphatdihydrat • 184 mM Propylenglycol • 58 mM Phenol • pH adjusted to 8.15 with H3PO4. In cases where pH was adjusted to 8.15 after re-suspension of analogues, 0.2 M NaOH was used. Assay (XI) Pharmacokinetic Study in Minipigs
This is done in a pharmacokinetic (PK) study, whereamong other parameters the terminal half-life and the clearance of the derivative in question is determined. Increasing the terminal half-life and decreasing the clearance means that the compound of study is eliminated slower from the body.
Male or female Göttingen minipigs were obtained from Ellegaard Göttingen Minipigs (Dalmose, Denmark) approximately 7-14 months of age and weighing from approximately 16-35 kg were used in the studies. The minipigs were housed either individually (pigs with permanent catheters) or in a group and fed restrictedly once or twice daily with SDS minipig diet (Special Diets Services, Essex, UK). In some studies two permanent central venous catheters were implanted in vena cava caudalis or cranialis in each animal after at least 2 weeks of acclimatisation. […] On each dosing occasion these pigs were instrumented with a venflon in one ear vein through which the derivatives were dosed. Blood sampling was done by venipuncture in v. jugularis or v. cava cranialis
The animals were either unfasted or fasted for approximately 18 h before dosing and from 0 to 4 h after dosing, but had ad libitum access to water during the whole period.
Intravenous injections (the volume corresponding to usually 2-3 nmol/kg, for example 0.1 ml/kg) of the compounds were given through one catheter or through the venflon, and blood was sampled at predefined time points for up till 13 days post dosing (preferably through the other catheter or by venipuncture). Blood samples (for example 0.8 ml) were collected in tubes with EDTA buffer (8 mM) (sometimes aprotinin 500 KIU/ml blood was added) and then centrifuged at 4° C. and 1942 G for 10 minutes. […] Based on these measurements, time-plasma concentration profiles for the compound of study are plotted and a so-called non-compartmental pharmacokinetic analysis of the data is performed in WinNonlin v. 5.0 or Phoenix v. 6.2 (Pharsight Inc., Mountain View, Calif., USA) or other relevant software for PK analysis. For most compounds, the terminal part of the plasma-concentration profiles will be linear when drawn in a semi-logarithmic plot, reflecting that after the initial distribution, drug is removed from the body at a constant fractional rate. The rate (lambda Z or is equal to minus the slope of the terminal part of the plot. From this rate, also the terminal half-life may be calculated, as t½=ln(2)/λz (see, e.g., Johan Gabrielsson and Daniel Weiner: Pharmacokinetics and Pharmacodynamic Data Analysis. Concepts & Applications, 3rd Ed., Swedish Pharmaceutical Press, Stockholm (2000)).
Clearance is defined as the dose (D) divided by area under the curve (AUC) on the plasmaconcentration versus time profile (Rowland, M and Tozer T N: Clinical Pharmacokinetics: Concepts and Applications, 3rd edition, 1995 Williams Wilkins)

[3] = biological target: T1, glucagon receptor (Homo sapiens, UniProt P47871); test: Assay (I) Glucagon activity (cAMP biosensor, FLIPR); type: cell-based
T1 construct: expressed in transfected cells
T1 sequence (P47871 26-477): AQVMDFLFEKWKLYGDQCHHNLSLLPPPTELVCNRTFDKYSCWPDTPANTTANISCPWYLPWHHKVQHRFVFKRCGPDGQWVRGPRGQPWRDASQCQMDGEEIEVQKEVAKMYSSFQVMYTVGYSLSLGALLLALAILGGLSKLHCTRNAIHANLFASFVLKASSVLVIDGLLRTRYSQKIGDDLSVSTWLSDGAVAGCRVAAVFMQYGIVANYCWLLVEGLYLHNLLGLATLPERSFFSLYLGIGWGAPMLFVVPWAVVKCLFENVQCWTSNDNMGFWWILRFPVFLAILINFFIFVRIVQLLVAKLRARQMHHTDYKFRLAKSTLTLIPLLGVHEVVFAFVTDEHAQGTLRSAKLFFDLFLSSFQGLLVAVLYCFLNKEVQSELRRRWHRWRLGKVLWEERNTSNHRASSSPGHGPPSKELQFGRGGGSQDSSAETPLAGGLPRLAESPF

CC(C)C[C@H](NC(=O)[C@H](CC(=O)O)NC(=O)[C@H](CC(C)C)NC(=O)[C@H](Cc1ccc(O)cc1)NC(=O)[C@H](CCCCN)NC(=O)[C@H](CO)NC(=O)[C@@H](NC(=O)[C@H](CC(=O)O)NC(=O)[C@H](CO)NC(=O)[C@@H](NC(=O)[C@H](Cc1ccccc1)NC(=O)[C@@H](NC(=O)CNC(=O)[C@H](CCC(N)=O)NC(=O)[C@H](CO)NC(=O)[C@@H](N)Cc1c[nH]cn1)[C@@H](C)O)[C@@H](C)O)C(C)C)C(=O)N[C@@H](CCCNC(=N)N)C(=O)N[C@@H](CCCNC(=N)N)C(=O)N[C@@H](C)C(=O)N[C@@H](CCC(N)=O)C(=O)N[C@@H](CCC(=O)O)C(=O)N[C@@H](Cc1ccccc1)C(=O)N[C@H](C(=O)N[C@@H](CCCCNC(=O)CC[C@H](NC(=O)COCCOCCNC(=O)COCCOCCNC(=O)CC[C@H](NC(=O)CC[C@H](NC(=O)CCCCCCCCCCCCCCCCC(=O)O)C(=O)O)C(=O)O)C(=O)O)C(=O)N[C@@H](Cc1c[nH]c2ccccc12)C(=O)N[C@@H](CC(C)C)C(=O)N[C@@H](CC(C)C)C(=O)N[C@@H](CO)C(=O)N[C@H](C(=O)O)[C@@H](C)O)C(C)C [Example 63, N^ε24-[(4S)-4-carboxy-4-[[2-[2-[2-[[2-[2-[2-[[(4S)-4-carboxy-4-[[(4S)-4-carboxy-4-(17-carboxyheptadecanoylamino)butanoyl]amino]butanoyl]amino]ethoxy]ethoxy]acetyl]amino]ethoxy]ethoxy]acetyl]amino]butanoyl]-[Val10,Leu16,Glu21,Lys24,Leu27,Ser28]-Glucagon] (H-HSQGTFTSDVSKYLDLRRAQEFVK([γGlu-AEEA-AEEA-γGlu-γGlu-C18 diacid])WLLST-OH)
Chemical stability [Purity loss/14 days 37 C.] [1]: 4.1% | half-life [2]: 63.7 h | EC50 [3]: 0.088 nM

CC(C)C[C@H](NC(=O)[C@H](CC(=O)O)NC(=O)[C@H](CC(C)C)NC(=O)[C@H](Cc1ccc(O)cc1)NC(=O)[C@H](CCCNC(=N)N)NC(=O)[C@H](CO)NC(=O)[C@H](Cc1ccc(O)cc1)NC(=O)[C@H](CC(=O)O)NC(=O)[C@H](CO)NC(=O)[C@@H](NC(=O)[C@H](Cc1ccccc1)NC(=O)[C@@H](NC(=O)CNC(=O)[C@H](CCC(N)=O)NC(=O)[C@H](CO)NC(=O)[C@@H](N)Cc1c[nH]cn1)[C@@H](C)O)[C@@H](C)O)C(=O)N[C@@H](CCCNC(=N)N)C(=O)N[C@@H](CCCNC(=N)N)C(=O)N[C@@H](C)C(=O)N[C@@H](CCC(N)=O)C(=O)N[C@@H](CC(=O)O)C(=O)N[C@@H](Cc1ccccc1)C(=O)N[C@H](C(=O)N[C@@H](CCCCNC(=O)CC[C@H](NC(=O)CC[C@H](NC(=O)COCCOCCNC(=O)COCCOCCNC(=O)CC[C@H](NC(=O)CCCCCCCCCCCCCCCCC(=O)O)C(=O)O)C(=O)O)C(=O)O)C(=O)N[C@@H](Cc1c[nH]c2ccccc12)C(=O)N[C@@H](CC(C)C)C(=O)N[C@@H](CC(C)C)C(=O)N[C@@H](CO)C(=O)N[C@H](C(=O)O)[C@@H](C)O)C(C)C [Example 15, N^ε24-[(4S)-4-carboxy-4-[[(4S)-4-carboxy-4-[[2-[2-[2-[[2-[2-[2-[[(4S)-4-carboxy-4-(17-carboxyheptadecanoylamino)butanoyl]amino]ethoxy]ethoxy]acetyl]amino]ethoxy]ethoxy]acetyl]amino]butanoyl]amino]butanoyl]-[Arg^12,Leu^16,Lys^24,Leu^27,Ser^28]-Glucagon] (H-HSQGTFTSDYSRYLDLRRAQDFVK([γGlu-γGlu-AEEA-AEEA-γGlu-C18 diacid])WLLST-OH)
Chemical stability [Purity loss/14 days 37 C.] [1]: 5.3% | half-life [2]: 77.4 h | EC50 [3]: 0.255 nM

CC(C)C[C@H](NC(=O)[C@H](CC(=O)O)NC(=O)[C@H](CC(C)C)NC(=O)[C@H](Cc1ccc(O)cc1)NC(=O)[C@H](CCCCN)NC(=O)[C@H](CO)NC(=O)[C@H](Cc1ccc(O)cc1)NC(=O)[C@H](CC(=O)O)NC(=O)[C@H](CO)NC(=O)[C@@H](NC(=O)[C@H](Cc1ccccc1)NC(=O)[C@@H](NC(=O)CNC(=O)[C@H](CCC(N)=O)NC(=O)[C@H](CO)NC(=O)[C@@H](N)Cc1c[nH]cn1)[C@@H](C)O)[C@@H](C)O)C(=O)N[C@@H](CCCNC(=N)N)C(=O)N[C@@H](CCCNC(=N)N)C(=O)N[C@@H](C)C(=O)N[C@@H](CCC(N)=O)C(=O)N[C@@H](CC(=O)O)C(=O)N[C@@H](Cc1ccccc1)C(=O)N[C@H](C(=O)N[C@@H](CCCCNC(=O)CC[C@H](NC(=O)CC[C@H](NC(=O)CC[C@H](NC(=O)CC[C@H](NC(=O)CCCCCCCCCCCCCCCCC(=O)O)C(=O)O)C(=O)O)C(=O)O)C(=O)O)C(=O)N[C@@H](Cc1c[nH]c2ccccc12)C(=O)N[C@@H](CC(C)C)C(=O)N[C@@H](CC(C)C)C(=O)N[C@@H](CO)C(=O)N[C@H](C(=O)O)[C@@H](C)O)C(C)C [Example 80, N^ε24-[(4S)-4-carboxy-4-[[(4S)-4-carboxy-4-[[(4S)-4-carboxy-4-[[(4S)-4-carboxy-4-(17-carboxyheptadecanoylamino)butanoyl]amino]butanoyl]amino]butanoyl]amino]butanoyl]-[Leu16,Lys24,Leu27,Ser28]-Glucagon]
Chemical stability [Purity loss/14 days 37 C.] [1]: 4.5% | half-life [2]: 60.9 h | EC50 [3]: 0.126 nM
